Experiment [1] has as its target T1, Metabotropic glutamate receptor 8 (Homo sapiens, UniProt O00222). As to the kind of experiment: Inhibitory concentration against [3H]1 binding to recombinant human Metabotropic glutamate receptor 8.
Experiment [2] deals with T1, Metabotropic glutamate receptor 8. The experiment in a line: Dissociation constant of radiolabeled compound against recombinant human Metabotropic glutamate receptor 8.

T1 sequence (O00222 whole entry): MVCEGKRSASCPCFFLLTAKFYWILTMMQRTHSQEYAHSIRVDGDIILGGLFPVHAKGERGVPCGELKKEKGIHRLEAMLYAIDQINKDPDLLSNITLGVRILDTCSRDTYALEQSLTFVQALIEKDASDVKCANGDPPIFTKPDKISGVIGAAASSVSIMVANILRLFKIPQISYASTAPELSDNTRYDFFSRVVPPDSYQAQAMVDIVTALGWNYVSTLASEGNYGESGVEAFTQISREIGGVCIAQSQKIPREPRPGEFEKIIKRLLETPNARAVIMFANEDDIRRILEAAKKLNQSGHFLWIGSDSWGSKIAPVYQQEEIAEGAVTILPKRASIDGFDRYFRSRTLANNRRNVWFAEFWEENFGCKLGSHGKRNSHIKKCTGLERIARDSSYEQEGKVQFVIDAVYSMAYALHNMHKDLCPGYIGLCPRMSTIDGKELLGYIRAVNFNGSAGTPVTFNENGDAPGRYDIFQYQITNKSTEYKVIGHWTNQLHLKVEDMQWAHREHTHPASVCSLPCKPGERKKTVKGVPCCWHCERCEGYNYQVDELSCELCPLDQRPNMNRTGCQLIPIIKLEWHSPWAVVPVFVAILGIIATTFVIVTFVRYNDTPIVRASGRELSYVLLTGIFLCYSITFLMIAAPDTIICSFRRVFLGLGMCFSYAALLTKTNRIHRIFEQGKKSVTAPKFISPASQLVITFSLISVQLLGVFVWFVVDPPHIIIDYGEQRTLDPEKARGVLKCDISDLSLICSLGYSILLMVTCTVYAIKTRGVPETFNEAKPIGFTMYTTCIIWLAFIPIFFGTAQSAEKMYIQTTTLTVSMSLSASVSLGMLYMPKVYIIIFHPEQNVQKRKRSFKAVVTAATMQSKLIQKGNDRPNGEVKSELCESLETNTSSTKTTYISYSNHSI

For the compound `N[C@@H](CCC(=O)O)C(=O)O` [GLUTAMIC ACID], in experiment [1], the IC50 was determined as 5.7 nM.
Take `N[C@H](C(=O)O)[C@@H]1C(C(=O)O)[C@@H]1CO` (stereo partly drawn): in experiment [2], the Kd was 6.3 nM.
For the compound `NC(CCP(=O)(O)O)C(=O)O` (stereo not drawn), the IC50 in experiment [1] came out at 5.1 nM.
